The target of series [1] is T1, Acyl-CoA desaturase 1 (Rattus norvegicus, UniProt P07308).
T1 sequence (P07308 whole entry): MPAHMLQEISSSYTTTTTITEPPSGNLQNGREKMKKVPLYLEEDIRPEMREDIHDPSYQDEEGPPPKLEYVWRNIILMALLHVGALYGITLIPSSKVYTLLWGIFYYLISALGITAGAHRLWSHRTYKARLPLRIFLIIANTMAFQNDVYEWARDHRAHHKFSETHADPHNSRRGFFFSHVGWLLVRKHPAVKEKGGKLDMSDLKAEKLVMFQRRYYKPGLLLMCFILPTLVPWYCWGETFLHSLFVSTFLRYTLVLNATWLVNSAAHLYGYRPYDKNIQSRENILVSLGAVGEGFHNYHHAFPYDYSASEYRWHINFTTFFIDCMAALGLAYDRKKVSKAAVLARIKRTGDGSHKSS
In words: Inhibition of rat SCD by rat microsomal assay.

Series [2] has as its target T1, Acyl-CoA desaturase 1. Nature of the series: Inhibition of SCD in rat hepatocytes assessed as conversion of [14C]-stearic acid to [14C]-oleic acid preincubated for 15 mins measured after 1 hrs by scintillation counting. It is filed as cell-based, Hepatocyte.
The target of another series is T2, Stearoyl-CoA desaturase (Homo sapiens, UniProt O00767).
T2 sequence (O00767 whole entry): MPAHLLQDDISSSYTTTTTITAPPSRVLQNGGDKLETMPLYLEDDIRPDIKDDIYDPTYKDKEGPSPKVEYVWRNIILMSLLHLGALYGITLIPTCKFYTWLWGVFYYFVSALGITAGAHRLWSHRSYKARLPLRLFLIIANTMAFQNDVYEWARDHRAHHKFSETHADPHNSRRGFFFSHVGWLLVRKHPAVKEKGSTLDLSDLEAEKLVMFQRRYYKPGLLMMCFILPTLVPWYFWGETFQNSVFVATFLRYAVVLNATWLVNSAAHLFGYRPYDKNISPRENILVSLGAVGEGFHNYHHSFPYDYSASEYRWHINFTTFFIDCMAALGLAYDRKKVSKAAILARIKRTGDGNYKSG
In words: Inhibition of SCD in human HepG2 cells assessed as conversion of [1-(14)C]-stearic acid to (14)C-oleic acid. It is filed as cell-based.

Series [3] is described as follows: Drug uptake in C57BL/6 mouse liver at 30 mg/kg, po after 3 hrs. It is filed as ADME, organism-based, C57BL6. The following applies: read-out: Drug uptake. Set-up: dose 30 mg/kg, route oral.
A short description of series [4]: Drug uptake in C57BL/6 mouse liver at 10 mg/kg, po after 6 hrs. In kind it is ADME, organism-based, C57BL6. Set-up: dose 10 mg/kg, route oral. The following applies: read-out: Drug uptake.
Series [5] has as its system Mus musculus. In words: Inhibition of SCD in C57BL/6 mouse liver assessed as conversion of [1-(14)C]-stearic acid to [1-(14)C]-oleic acid at 30 mg/kg, po after 3 hrs. It is filed as functional.
Series [6] is described as follows: Drug uptake in C57BL/6 mouse plasma at 10 mg/kg, po after 6 hrs. The arrangement: dose 10 mg/kg, route oral. The following applies: read-out: Drug uptake. It is filed as ADME, organism-based, C57BL6.
In series [7] the test system is Mus musculus. In words: Inhibition of SCD in C57BL/6 mouse liver assessed as conversion of [1-(14)C]-stearic acid to [1-(14)C]-oleic acid at 10 mg/kg, po after 3 hrs. The following applies: C57BL/6, Liver. In kind it is functional.
A short description of series [8]: Drug uptake in C57BL/6 mouse skin at 10 mg/kg, po after 6 hrs. In kind it is ADME, organism-based, C57BL6, Zone of skin. Set-up: dose 10 mg/kg, route oral. The following applies: read-out: Drug uptake.
The test system of the next series is Nucleic Acid. Nature of the series: Ratio of drug uptake in liver to skin of C57BL/6 mouse at 10 mg/kg, po after 6 hrs. In kind it is ADME, organism-based, C57BL6. The arrangement: dose 10 mg/kg, route oral. The following applies: in vivo.
A short description of series [9]: Drug uptake in C57BL/6 mouse harderian glands at 10 mg/kg, po after 6 hrs. In kind it is ADME, organism-based, C57BL6, Harderian gland. Set-up: dose 10 mg/kg, route oral. The following applies: read-out: Drug uptake.
Series [10] deals with Mus musculus. In words: Ratio of drug uptake in liver to harderian glands of C57BL/6 mouse at 10 mg/kg, po after 6 hrs. The following applies: in vivo.
Series [11] in a line: Inhibition of mouse SCD.

Activity calls are given as the source filed them. No cut-off for these calls is given here. Where only a bound is given, the exact number is not on record here.

The IC50 is the concentration at which inhibition is half-maximal. In the case of `O=C(O)Cn1nnc(-c2cc(-c3cn(Cc4cc(Cl)c(Cl)c(Cl)c4)nn3)ccn2)n1`, on Acyl-CoA desaturase 1 [1], the IC50 was determined as 719 nM.

For the compound `O=C(O)CCc1nc(-c2cn(Cc3cc(Br)c(Br)c(Br)c3)nn2)no1`, on Acyl-CoA desaturase 1 [1], 552 nM corresponded to half-maximal inhibition (IC50).

Consider `O=C(O)Cn1nnc(-c2ccc(-c3cn(Cc4cc(Cl)c(Cl)c(Cl)c4)nn3)nn2)n1`, for which the IC50 against Acyl-CoA desaturase 1 [1] is 1810 nM.

Consider `O=C(O)Cn1nnc(-c2cn(CCc3cc(Br)c(Br)c(Br)c3)nn2)n1`, for which, at Acyl-CoA desaturase 1 [1], the IC50 worked out at 19900 nM.

Take `O=C(O)CCCCCc1nc(-c2cn(Cc3cc(Br)c(Br)c(Br)c3)nn2)no1`: the IC50 against Acyl-CoA desaturase 1 [1] was 8320 nM.

On Acyl-CoA desaturase 1 [1], `O=C(O)CCCc1nc(-c2cn(Cc3cc(Br)c(Br)c(Br)c3)nn2)no1` showed an IC50 of 216 nM.

Consider `O=C(O)Cn1nnc(-c2cnc(-c3cn(Cc4cc(Cl)c(Cl)c(Cl)c4)nn3)s2)n1`, for which the IC50 at Acyl-CoA desaturase 1 [2] is 975 nM; against Acyl-CoA desaturase 1 [1], 49 nM; at Stearoyl-CoA desaturase, > 100000 nM. In [3], the concentration at 3 h came out at 4100 nM. Moreover, the concentration at 6 h in [4] worked out at 330 nM. In the series on Mus musculus [5], the inhibition entry is “inactive”.

The inhibition in vivo is how much of the control response was suppressed. As to `NC(=O)c1cn(Cc2cc(Br)c(Br)c(Br)c2)nn1`, the concentration at 6 h in series [6] was 740 nM; in series [8], 740 nM; in [9], 6630 nM; in [4], 2690 nM. The IC50 amounted to 10100 nM at Acyl-CoA desaturase 1 [2], 19 nM against Acyl-CoA desaturase 1 [1] and 760 nM at Stearoyl-CoA desaturase. Further, in the series on Mus musculus [7], the inhibition in vivo at 10 mg/kg turned out to be 46%. The concentration at 3 h in series [3] worked out at 14000 nM. Besides, the Ratio stood at 3.6 in the series with Nucleic Acid and 0.4 with Mus musculus [10].

On to `O=C(O)Cn1nnc(-c2ccnc(-c3cn(Cc4cc(Cl)c(Cl)c(Cl)c4)nn3)c2)n1`, for which the IC50 against Acyl-CoA desaturase 1 [1] was 1310 nM.

Turning to `O=C(O)Cn1nnc(-c2cn(CCCc3cc(Br)c(Br)c(Br)c3)nn2)n1`, the IC50 at Acyl-CoA desaturase 1 [1] is 911 nM.

As for `O=C(O)CCCCc1nc(-c2cn(Cc3cc(Br)c(Br)c(Br)c3)nn2)no1`, the IC50 against Acyl-CoA desaturase 1 [1] is 5250 nM.

Turning to `O=C(O)Cn1nnc(-c2cncc(-c3cn(Cc4cc(Br)c(Br)c(Br)c4)nn3)c2)n1`, the IC50 at Acyl-CoA desaturase 1 [2] was found to be 694 nM; against Acyl-CoA desaturase 1 [1], 56 nM; on Stearoyl-CoA desaturase it was 6310 nM. For the same compound, the concentration at 3 h in [3] was 900 nM. For the same compound, the concentration at 6 h in [4] stood at 470 nM. Further, the inhibition entry in the series on Mus musculus [5] was “inactive”.

`NC(=O)c1nnn(Cc2cc(Br)c(Br)c(Br)c2)c1N`: at Acyl-CoA desaturase 1 [1], 6 nM corresponded to half-maximal inhibition (IC50).

Compound `O=C(O)Cn1nnc(-c2cnc(-c3cn(Cc4cc(Cl)c(Cl)c(Cl)c4)nn3)nc2)n1` showed an IC50 against Acyl-CoA desaturase 1 [1] of 343 nM.

At Acyl-CoA desaturase 1 [1], `O=C(O)Cn1nnc(-c2cnc(-c3cn(Cc4cc(Br)c(Br)c(Br)c4)nn3)cn2)n1` registered an IC50 of 1250 nM.

As for `O=C(O)Cn1nnc(-c2cn(Cc3cc(Br)c(Br)c(Br)c3)nn2)n1`, the half-inhibitory concentration (IC50) against Acyl-CoA desaturase 1 [1] was > 20000 nM.

With `O=C(O)Cn1nnc(-c2cc(-c3cn(Cc4cc(Br)c(Br)c(Br)c4)nn3)no2)n1`, the IC50 on Acyl-CoA desaturase 1 [2] came to 212 nM; at Acyl-CoA desaturase 1 [1] it was 21 nM; on Stearoyl-CoA desaturase it was 37700 nM; in series [11] it was 10 nM. Also, the concentration at 3 h in series [3] was determined as 8400 nM. For the same compound, the Ratio with Mus musculus [10] is 100. For the same compound, the concentration at 6 h in series [4] was 1660 nM. Further, in the series with Mus musculus [5] (C57BL/6, Liver), the inhibition in vivo at 30 mg/kg amounted to 30%.

Consider `NC(=O)c1nnn(Cc2cc(Cl)c(Cl)c(Cl)c2)c1N`, for which the IC50 against Acyl-CoA desaturase 1 [1] was determined as 12 nM.
